Experiments:
Type in all cases: cell-based, human
[1] = system: SK-MEL-28-MYC cells; assay: Growth inhibitory action on MYC-induced SK-MEL-28-MYC cells (CellTiter-Glo); conditions: 125 nM, 3 days
Excerpt: (§1) Human MYC cDNA was inserted downstream of the TRE of a lentiviral vector (modified pTRIPZ: GE Healthcare) having a tetracycline responsive sequence (TRE) in the promoter region. The produced virus was infected with human malignant melanoma cells SK-MEL-28 (purchased from ATCC) to establish SK-MEL-28 cells (SK-MEL-28-MYC) inducing expression of MYC in the presence of doxycycline (Takara Bio Inc.) which is a tetracycline derivative. SK-MEL-28 cells (SK-MEL-28-Control) having an empty vector with only modified pTRIPZ were also established. 20 μL/well of 2.5 μg/mL doxycycline-containing medium was added to a 96-well plate, and 80 μl/well (1,000 cells/well) of a cell suspension was added, and cultured at 37° C. for 2 days in a 5% CO2 gas incubator. Thereafter, 100 μl of a 250 nM test compound solution was added (final concentration: 125 nM), and the mixture was further cultured for 3 days. 50 µl/well of a CellTiter-Glo™ Luminescent Cell Viability Assay reagent (Promega Corporation) was added to a 96-well plate, the amount of luminescence was measured by a luminometer, and the amount of remaining ATP was determined as a cell amount. The inhibition ratio (%) of cell growth by the test compound was calculated in accordance with the following expression. Inhibition ratio (%)=(1−(amount of luminescence of test compound)÷(amount of luminescence of control group))×100

[2] = system: MDM4 transcription product (MDM4 FL / MDM4 S); assay: In vitro MDM4 alternative splicing ratio in HCT116 cells (quantitative PCR); conditions: 300 nM, 6 hours, PSI = MDM4 FL/(MDM4 FL + MDM4 S) x 100, Control (DMSO) 75.75
Procedure: 1000 μl (20,0000 cells/well) of a cell suspension of human colon adenocarcinoma cells HCT116 (purchased from ATCC) was seeded in a 12-well plate, and cultured at 37° C. for 1 day in a 5% CO2 gas incubator. The test compound solution was added to a final concentration of 300 nM, and the mixture was cultured for 6 hours. The plate was washed with PBS, the cells were then dissolved using RNeasy Mini Kit (QIAGEN), and RNA was extracted. Using cDNA after reverse transcription reaction, the number of copies of the MDM4 transcription product containing exon 6 (MDM4 FL) and the MDM4 transcription product in which exon 6 was skipped (MDM4 S) was measured by quantitative PCR. Primers with the following sequences were used for the measurement.
Primers with the following sequences were used for the measurement.
The following oligos were used for preparing a calibration curve.
A change in MDM4 alternative splicing ratio (PSI) is calculated in accordance with the following expression, and changes caused by the test compound are shown in Table 8. PSI=(number of copies of MDM4 FL÷(number of copies of MDM4 FL+number of copies of MDM4 S))×100

[3] = system: SK-MEL-28-Control cells; assay: Growth inhibitory action on SK-MEL-28-Control cells (CellTiter-Glo); conditions: 125 nM, 3 days
Excerpt: as §1

[4] = system: p53 protein; assay: p53 induction activity in HCT116 cells (western blot); conditions: 300 nM, 16 hours, relative to control group
Procedure: (§2) 1000 μl (8,0000 cells/well) of a cell suspension of human colon adenocarcinoma cells HCT116 (purchased from ATCC) was seeded in a 12-well plate, and cultured at 37° C. for 2 days in a 5% CO2 gas incubator. The test compound solution was added to a final concentration of 300 nM, and the mixture was cultured for 16 hours. The plate was washed with PBS, a protein extract (10% glycerol, 1% sodium dodecyl sulfate, 62.5 mM Tris-HCl (pH: 7.5)) was then added to dissolve the cells, and the solution was treated at 95° C. for 5 minutes. Thereafter, the amount of protein was determined using BCA Protein Assay Kit (Thermo Fisher Scientific).
(§3) The amount of the protein in each sample was adjusted, SDS-PAGE was then performed, and the protein was transferred to a PVDF membrane using an iBlot (registered trademark) gel transfer system (Invitrogen). […] The membrane was washed in the same procedure as described above, a phosphorylated CLK2 protein, a MDM4 protein, a p53 protein and a p21 protein each labeled with an antibody were then made chemiluminescent using ImmunoStar ZETA (Wako Pure Chemical Industries, Ltd.), and luminescence was detected with LAS-3000 Image Analyzer (Fujifilm Corporation). The luminescence intensity was determined using Multi Gauge Ver. 3.1 (Fujifilm Corporation), and quantified. […]

[5] = system: p21 protein; assay: p21 induction activity in HCT116 cells (western blot); conditions: 300 nM, 16 hours, relative to control group
Procedure: as §2, §3

[6] = system: MDM4 protein; assay: MDM4 protein amount in HCT116 cells (western blot); conditions: 300 nM, 16 hours, relative to control group
Procedure: as §2, §3

COc1ncnn2ccc(-c3cnc4nc(C)n(Cc5nnc([C@@H](C)F)o5)c4c3)c12 [Example 286, 1-((5-((1R)-1-fluoroethyl)-1,3,4-oxadiazol-2-yl)methyl)-6-(4-methoxypyrrolo[2,1-f][1,2,4]triazin-5-yl)-2-methyl-1H-imidazo[4,5-b]pyridine]
Inhibition ratio (%) of cell growth, Doxycycline (+) ([1]; Doxycycline (+), MYC induced): 69.3% | Inhibition ratio (%) of cell growth, Doxycycline (−) ([1]; Doxycycline (−)): 24.7% | PSI (MDM4 alternative splicing ratio) [2]: 45.81 | Inhibition ratio (%) of cell growth, Doxycycline (+) ([3]; Doxycycline (+)): 35.7% | Inhibition ratio (%) of cell growth, Doxycycline (−) ([3]; Doxycycline (−)): 34.4% | Increase ratio (p53) [4]: 620.7% | Increase ratio (p21) [5]: 556.4% | Residual ratio (MDM4) [6]: 43.6%

Source: patent publication US10577382B2, “Fused heterocyclic compound” (TAKEDA PHARMACEUTICAL COMPANY LIMITED, priority 2016, dated 2020)
